Several values for one entry are separate records, joined by “and”; a condition that tells them apart may be missing. Identical values can stand only once. Inconclusive results and toxic doses are left out. No stated cut-off is given here; in the data, active means T/C of 150% or more; inactive means T/C below 125%.
Test system: L1210 leukemia ip in BDF1 mice, survival T/C
Test: NCI In Vivo Anticancer Drug Screen. Data for tumor model L1210 Leukemia (intraperitoneal) in B6D2F1 (BDF1) mice
Conditions: endpoint: mean survival time, higher = longer survival
Procedure, shortened: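 Mice bearing the transplanted tumor received compound or vehicle. Survival of the treated group was divided by that of the vehicle-treated control group to give the ratio.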

[1] = dose: 75.0 mg/kg/injection, schedule: Q01DX001 (ip), vehicle: saline
[2] = dose: 150.0 mg/kg/injection, schedule: Q01DX001 (ip), vehicle: saline
[3] = dose: 25.0 mg/kg/injection, schedule: Q01DX009 (ip), vehicle: saline
[4] = dose: 50.0 mg/kg/injection, schedule: Q01DX009 (ip), vehicle: saline
[5] = dose: 100.0 mg/kg/injection, schedule: Q04DX003 (ip), vehicle: saline with Tween-80
[6] = dose: 200.0 mg/kg/injection, schedule: Q04DX003 (ip), vehicle: saline with Tween-80
[7] = dose: 400.0 mg/kg/injection, schedule: Q04DX003 (ip), vehicle: saline with Tween-80

Measured: T/C

Cc1c(C(=O)O)[nH]c(=O)[nH]c1=O
inactive: dose: 100.0 mg/kg/injection, schedule: Q01DX Z (ip), vehicle: methylcellulose (MC) 90 % of control | dose: 200.0 mg/kg/injection, schedule: Q01DX Z (ip), vehicle: methylcellulose (MC) 97 % of control

CC[N+](C)(CC)CC[N+]1(C)CC2CC=CCC2C1 (stereo not given)
inactive: dose: 222.0 mg/kg/injection, schedule: Q01DX Z (ip), vehicle: saline 94 % of control | dose: 333.0 mg/kg/injection, schedule: Q01DX Z (ip), vehicle: saline 97 % of control | dose: 500.0 mg/kg/injection, schedule: Q01DX Z (ip), vehicle: saline 94 % of control

CCCCC(=O)NC1=C(Cl)C(=O)c2ccccc2C1=O
inactive: [1] 89 % of control | [2] 90 % of control

CCCCCCCCCCCCOP(=O)(OCCCCCCCCCCCC)c1ccccc1
inactive: dose: 50.0 mg/kg/injection, schedule: Q01DX001 (ip), vehicle: saline 100 % of control | dose: 100.0 mg/kg/injection, schedule: Q01DX001 (ip), vehicle: saline 97 % of control | dose: 200.0 mg/kg/injection, schedule: Q01DX001 (ip), vehicle: saline 94 % of control | dose: 400.0 mg/kg/injection, schedule: Q01DX001 (ip), vehicle: saline 91 % of control

COc1cc(C(O)c2nccc3cc(OC)c(OC)cc23)c([N+](=O)[O-])cc1OC (stereo not given)
inactive: [1] 111 % of control | [2] 106 % of control | dose: 300.0 mg/kg/injection, schedule: Q01DX001 (ip), vehicle: saline 101 % of control

Cc1n(Cc2ccccc2)cc[n+]1C
inactive: dose: 12.5 mg/kg/injection, schedule: Q01DX009 (ip), vehicle: saline 109 % of control and 119 % of control | dose: 12.5 mg/kg/injection, schedule: Q04DX002 (ip), vehicle: saline 100 % of control and 111 % of control | [3] 117 % of control and 119 % of control | dose: 25.0 mg/kg/injection, schedule: Q04DX002 (ip), vehicle: saline 100 % of control | [4] 93 % of control

O=Cc1cc(=O)[nH]c(S)[n+]1-c1ccccc1
inactive: dose: 50.0 mg/kg/injection, schedule: Q04DX002 (ip), vehicle: Klucel (hydroxypropylcellulose) (HPC) 96 % of control | dose: 100.0 mg/kg/injection, schedule: Q04DX002 (ip), vehicle: Klucel (hydroxypropylcellulose) (HPC) 96 % of control | dose: 200.0 mg/kg/injection, schedule: Q04DX002 (ip), vehicle: Klucel (hydroxypropylcellulose) (HPC) 101 % of control

O=c1cc(-c2ccccc2)[nH]c(=S)[nH]1
inactive: dose: 100.0 mg/kg/injection, schedule: Q01DX009 (ip), vehicle: saline with Tween-80 94 % of control | [5] 101 % of control | [6] 103 % of control | dose: 400.0 mg/kg/injection, schedule: Q01DX009 (ip), vehicle: saline with Tween-80 89 % of control | [7] 106 % of control

COc1ccccc1OCC(=O)N1CCCCC1
inactive: dose: 100.0 mg/kg/injection, schedule: Q04DX002 (ip), vehicle: saline 101 % of control | dose: 200.0 mg/kg/injection, schedule: Q04DX002 (ip), vehicle: saline 107 % of control | dose: 400.0 mg/kg/injection, schedule: Q04DX002 (ip), vehicle: saline 90 % of control

CCCOC(=O)c1ccccc1
inactive: dose: 100.0 mg/kg/injection, schedule: Q01DX001 (ip), vehicle: Klucel (hydroxypropylcellulose) (HPC) 100 % of control | dose: 200.0 mg/kg/injection, schedule: Q01DX001 (ip), vehicle: Klucel (hydroxypropylcellulose) (HPC) 97 % of control | dose: 400.0 mg/kg/injection, schedule: Q01DX001 (ip), vehicle: Klucel (hydroxypropylcellulose) (HPC) 97 % of control

CNC(=O)Oc1cccc(NC(=O)C2CC2)c1
inactive: [5] 94 % of control | [6] 94 % of control | [7] 96 % of control

COc1ccc(-n2cc3c(=O)nccc-3c3ccccc32)cc1OC
inactive: [1] 95 % of control | [2] 89 % of control

O=P(O)(N(CCCl)CCCl)N1CCN(Cc2ccccc2)CC1
inactive: dose: 10.0 mg/kg/injection, schedule: Q01DX Z (ip), vehicle: other 95 % of control | dose: 30.0 mg/kg/injection, schedule: Q01DX Z (ip), vehicle: other 105 % of control | dose: 100.0 mg/kg/injection, schedule: Q01DX Z (ip), vehicle: other 108 % of control

C[P+](C)(Cc1ccc([N+](=O)[O-])cc1)c1ccccc1
inactive: dose: 12.0 mg/kg/injection, schedule: Q04DX003 (ip), vehicle: saline 98 % of control | [3] 105 % of control | dose: 25.0 mg/kg/injection, schedule: Q04DX003 (ip), vehicle: saline 104 % of control | [4] 109 % of control | dose: 50.0 mg/kg/injection, schedule: Q04DX003 (ip), vehicle: saline 104 % of control

c1ccc2c(c1)[nH]c1ccncc12
inactive: dose: 25.0 mg/kg/injection, schedule: Q04DX003 (ip), vehicle: saline with Tween-80 101 % of control | dose: 50.0 mg/kg/injection, schedule: Q04DX003 (ip), vehicle: saline with Tween-80 95 % of control | [5] 97 % of control

NC(=O)NC=O
inactive: dose: 50.0 mg/kg/injection, schedule: Q01DX009 (ip), vehicle: Klucel (hydroxypropylcellulose) (HPC) 96 % of control | dose: 50.0 mg/kg/injection, schedule: Q04DX003 (ip), vehicle: Klucel (hydroxypropylcellulose) (HPC) 101 % of control | dose: 100.0 mg/kg/injection, schedule: Q01DX009 (ip), vehicle: Klucel (hydroxypropylcellulose) (HPC) 102 % of control | dose: 100.0 mg/kg/injection, schedule: Q04DX003 (ip), vehicle: Klucel (hydroxypropylcellulose) (HPC) 105 % of control | dose: 200.0 mg/kg/injection, schedule: Q01DX009 (ip), vehicle: Klucel (hydroxypropylcellulose) (HPC) 96 % of control | dose: 200.0 mg/kg/injection, schedule: Q04DX003 (ip), vehicle: Klucel (hydroxypropylcellulose) (HPC) 115 % of control
